Experimental data as given in patent US9248108B2 (Ottawa Hospital Research Institute, priority 2012, dated 2016).
Read-outs that look alike come from different tables or passages of the source. Marks after values point to notes of the source that are not given here.

Tests used:
ovarian polyamines = assay: Ovarian polyamine quantification by ion chromatography; format: in vivo, mouse; settings: older mice, 1% putrescine in drinking water for several days
Description: A Dionex ion chromatography system was used to analyze polyamines during ovulation. This system employs an online conductivity detector coupled with an anion suppressor such that only cations are detected. Ovaries were extracted in 5% trichloric acid (TCA) followed by extraction with diethyl ether. The TCA extracts were diluted in water before being applied to the ion chromatography system.
(§1) Polyamines from ovarian samples were determined by ion chromatography (IC) system (Rey and Pohl, 2003. J. Chromatography A 997:199-206). Ovaries were collected immediately after animal sacrifice and stored at −80° C. until use. The samples were thawed and minced, and then 5% trichloroacetic acid (TCA) was added (20 μl/mg). The samples were ultra-sonicated 30 seconds thrice. After centrifugation, the supernatants were extracted twice with diethyl ether. The mouse blood was collected in a tube containing 1 iu/ml heparin (LEO). After centrifugation, the supernatant (plasma) was collected and 10% TCA was added by 1:1 in volume. These plasma samples were extracted twice with diethyl ether, as noted above. The extracts were diluted 10 times in water for polyamine analysis on Dionex Ion ICS-2100 system (Thermo scientific, Dionex, Sunnyvale, Calif., USA) according to the manufacture instructions, using the support software of PeakNet 6.40 SP5 Build 778.

[1] = 1 mM putrescine in drinking water, stated by Penderville H. et al; cited from earlier work
in vivo = settings: mouse, plasma
Description: as §1

9-month-old CF1 mice = test system: 9-month-old CF1 mice
Description: Four (4) days later, the female mice are caged individually with fertile males (1:1) overnight. The females were examined in the morning for the presence of a vaginal plug (indicative of mating) and “plugged” females are considered E0 and separated from the males. Mice without a plug were continued mating until a plug was seen, or for up to a total of 4 days (average length of a mouse estrus cycle). Mice were sacrificed on E12 (“unplugged” mice were also sacrificed, taking the next morning following the 4-day-mating as E0) and their uterine horns inspected for normal embryos and dead embryos (resorption).

[2] = test system: oocytes of very old (16 months) odc-/+ mice
Description: Table 12 Summary of two independent experiments. N: total numbers of oocytes in two experiments; GV: oocytes remained in prophase I; MI, no germinal vesicle and no polar body seen (used for spindle examination); PB1, oocytes with first polar body; Fragmented: abnormal cleavage likely due to parthenogenetic activation. * one MI oocyte was lost during handling.

[3] = test system: oocytes of C57BL/6 (8 months) mice
Description: GV oocytes isolated from the ovaries of control mice were incubated for 17 h in αMEM. […] Metaphase II eggs following IVM were karyotyped and data expressed. Karyotype analyses were carried out by dual stains (anti-CREST and Sytox green) of metaphase II chromosomes. N: number of interpretable metaphase II karyotypes containing at least 18 dyads or the equivalent (e.g. 17 dyads plus 2 separated sister chromatids). Hypoploid: 18-19 dyads. Euploid: 20 dyads. Hyperploid: 21. PSSC: any karyotypes containing separated sister chromatid(s), with the total of at least 18 dyads or the equivalents. Aneuploid: 2×hyperploid+PSSC. Detailed breakdowns are in Table 14.
Mice were euthanized by cervical dislocation 44-46 h after they were primed with 5 IU equine chorionic gonadotropin (eCG) intraperitonally. […] Ovaries were immediately removed and minced in M2 medium (Sigma; unless otherwise indicated, other chemicals used in this study were also purchased from Sigma) to release oocytes. Oocytes with a clear germinal vesicle (GV) were used for in vitro maturation (IVM) for 17 hours in IVM medium (αMEM medium supplemented with 5% fetal bovine serum and 1 mM L-glutamine) overlaid with mineral oil.
Chromosome spread was carried out according to Hodges and Hunt (Hodges & Hunt, 2002) with minor modifications. In brief, oocytes or 2-cell embryos were collected in M2 medium. The zona pellucida was removed by treatment with 0.5 units/μl pronase at 37° C. for 20 sec. Zona-free oocytes/embryos were rinsed in M2 medium to detach polar bodies. The oocytes/embryos were individually plated onto glass slides (1-10 oocytes/embryos per slide) predipped in the fixative (prepared weekly and stored at 4° C.) containing 1% paraformaldehyde (w/v), 0.15% Triton X-100 (v/v), and 3 mM dithiothreitol, pH 9.2. Slides were kept overnight in moist boxes at room temperature. The slides were then rinsed in 0.5% Kodak Flo (Eastman Kodak Company, Rochester, N.Y.) solution and air-dried. The slides were incubated in 1:200 diluted human anti-centromere serum (Immunovision, Springdale, Ark.) in PBS containing 1% BSA overnight at 4° C., in 1:300 diluted secondary antibody (goat anti-human) conjugated with rhodamine (Jackson ImmunoResearch) in PBS-BSA for 1 h at room temperature, and 0.1% SYTOX green (Invitrogen, Eugene, Oreg.) in PBS for 30 min at room temperature. To avoid bias, the slides were coded by a colleague before being examined by an investigator using epifluorescence microscopy and photographed. Decoding was done after karyotypes were tabulated.

[4] = number of MII eggs, 1% putrescine drinking water one week, IVM with 5 mM putrescine

## NCCCCN [Putrescine, putrescine]
Ovarian polyamines
  levels of ovarian spermidine and spermine: remained unchanged
Ovarian polyamines; before or 5 h after hCG
  levels of ovarian putrescine compared to control mice: appreciably higher
[1]
  fetal toxicity: fetal toxicity was found
In vivo; sc
  concentration at 20 min: 42 µM
In vivo; subcutaneous
  concentration at 40 min: 16 µM
  concentration at 60 min: 8 µM
9-month-old CF1 mice; E12
  Total implants: 300
  Total normal fetuses: 282
  Total resorption sites: 18
9-month-old CF1 mice; E12, as fraction
  Total normal fetuses/total animals: 282/29
  Total normal fetuses/total pregnancies: 282/24
  Total resorption sites/total animals: 18/29
  Total resorption sites/total implants: 18/300
  Total resorption sites/total pregnancies: 18/24
9-month-old CF1 mice; E12, quotient
  Total normal fetuses/total animals: (9.27)
  Total normal fetuses/total pregnancies: (11.75)
  Total resorption sites/total animals: (0.62)
9-month-old CF1 mice; number of mice, 1% putrescine in drinking water
  Total pregnancy: 24
9-month-old CF1 mice; number of mice, 1% putrescine in drinking water 5-8 days up to plug
  Plug observed: 25
9-month-old CF1 mice; percent of plugged mice
  Plug pregnancy: (92.00%)
9-month-old CF1 mice; percent of unplugged mice
  Unplug pregnancy: (25.00%)
9-month-old CF1 mice; pregnant/plugged mice
  Plug pregnancy: 23/25
9-month-old CF1 mice; pregnant/unplugged mice
  Unplug pregnancy: 1/4
[2]; normal/examined MI oocytes
  Normal MI spindle: 19/20*
[2]; number of oocytes
  dead: 1
[2]; number of oocytes remained in prophase I, two experiments
  GV: 6
[2]; number of oocytes with abnormal cleavage
  fragmented: 0
[2]; number of oocytes with first polar body
  PB1: 2
[2]; number of oocytes, no germinal vesicle and no polar body
  MI: 21
[3]; 1% putrescine drinking water one week, IVM with 5 mM putrescine
  % Hyperploidy: 0%
[3]; Aneuploid: 2×hyperploid+PSSC, 1% putrescine drinking water one week, IVM with 5 mM putrescine
  % Aneuploidy: 5.3%
[3]; [4]
  Euploid 20: 83
  Hyperploid 21: 0
  Hyperploid 22: 0
  Hypoploid 19: 21
  PSSC: 6
[3]; number of MII eggs, 1% putrescine drinking water one week, then 17 h IVM with 5 mM putrescine
  Hypoploid 18: 4
[3]; number of eggs per experiment date (breakdown of Table 13)
  Hyperploid: 0
[3]; putrescine in drinking water, n=13
  number of fully grown GV oocytes in the ovaries: 25.3 /mouse
